Source: PMC10720538, “Population pharmacokinetic modeling and target attainment analyses of rezafungin for the treatment of candidemia and invasive candidiasis” (Antimicrobial Agents and Chemotherapy, 2023)
*1 amine or outer side, *2 acyl side, *3 side chain or, on linkers, in order; H or OH if unused. Where a SMILES comes first, the peptide text is derived from it. Bridges are numbered along the chain shown (N, C = ends). [ ]: non-standard residue; d: D form. The star is where a group is joined. Orn(4R-OH,5R-OCH2CH2NMe3+) = C[N+](C)(C)CCO[C@@H](N[*:3])[C@H](O)C[C@H](N[*:1])C(=O)[*:2]; pTerphenylCO(4''-OnC5H11) = CCCCCOc1ccc(-c2ccc(-c3ccc(C(=O)*)cc3)cc2)cc1; hTyr(3S-OH,4S-OH) = N[C@H](C(=O)O)[C@H](O)[C@@H](O)c1ccc(O)cc1; Pro(3S-OH,4S-Me) = C[C@H]1CN[C@H](C(=O)O)[C@H]1O; Hyp = O=C(O)[C@@H]1C[C@@H](O)CN1

What was measured:
Candida tropicalis = settings: CLSI MIC, neutropenic mouse, ref Lepak et al., 2019 (e01556-19), cited from earlier work
Method: (§1) TABLE 4 Nonclinical pharmacokinetic/pharmacodynamic targets, by species^a^,^b^,^c | column: Stasis / fAUC0–168h/MIC median; 1-Log drop / fAUC0–168h/MIC median || FIG 4 Probability of pharmacokinetic/pharmacodynamic target attainment for 400 mg rezafungin against Candida species using CLSI methodology. f, free. TEXT PRINTED IN THE PICTURE: no label printed: Candida albicans − fAUC/MIC Targets: CLSI Target: Stasis 20.5; Candida albicans − fAUC/MIC Targets: CLSI Target: 1-Log Drop in CFU 37.2; Candida glabrata − fAUC/MIC Targets: CLSI Target: Stasis 0.5; Candida glabrata − fAUC/MIC Targets: CLSI Target: 1-Log Drop in CFU 2.94; Candida parapsilosis − fAUC/MIC Targets: CLSI Target: Stasis 18.2; Candida auris − fAUC/MIC Targets: CLSI Target: Stasis 12.1; Can ...

Candida dubliniensis = settings: CLSI MIC, neutropenic mouse, ref Lepak et al., 2019 (e01556-19), cited from earlier work
Method: as §1

Candida auris = settings: CLSI MIC, neutropenic mouse, published fAUC0–24 h/MIC target multiplied by 7, ref Lepak et al., 2018 (e01572-18), cited from earlier work
Method: as §1

Candida albicans = settings: CLSI MIC, neutropenic mouse, ref Lepak et al., 2018 (e02154-17), cited from earlier work
Method: as §1

Candida glabrata = settings: CLSI MIC, neutropenic mouse, ref Lepak et al., 2018 (e02154-17), cited from earlier work
Method: as §1

[1] = Population pharmacokinetic model of rezafungin (three-compartment, NONMEM) from plasma concentrations of Phase 1, 2 and 3 studies; assay type: in vivo, human
Method: Data from single- and multiple-dose studies in healthy volunteers and patients, with doses ranging from 50 to 1,400 mg, were included in the PK analysis. All doses of rezafungin were administered via IV infusion. The PK data set consisted of a total of 2,512 rezafungin concentration records from 277 subjects, of which five records were identified as below the lower limit of quantitation postdose and five other records were identified as above 50 µg/mL, which was the upper limit of quantitation. Those records together represent less than 0.5% of the observed concentrations and were excluded from the analysis.
Starting from the previously developed four-compartment PK model ([13]), structurally simpler two- and three-compartment models with IIV in various parameters were developed and compared. During the initial modeling exercise, eight additional records were identified as outliers using conditional weighted residuals greater than 5 or smaller than −5 as a criterion and were excluded from model development. […] The two other compartments were considered peripheral distribution compartments (V2 and V3). When IIVs in V2 and V3 were included in the model, it was recognized that the individual IIVs on V2 and V3 were highly correlated, and, in addition, the typical estimates of V2 and V3 were very similar. Therefore, a model with a shared IIV term and with a single shared parameter for V2 and V3 [peripheral volume (V23)] was tested. […] The estimation of a four-compartment model achieved a moderate improvement in the value of the objective function (VOF) (a decrease of 49 points). However, there was no discernible improvement in the goodness-of-fit model diagnostics, and the residual error was nearly identical. Therefore, the three-compartment structural model was considered to adequately describe the PK of rezafungin without overparameterization. The inclusion of IIV terms was tested on various PK parameters, including clearance (CL), central volume of distribution (V1), V23, intercompartmental clearance 1 (Q2), and intercompartmental clearance 2 (Q3). Interindividual variability terms on CL, V1, and V23 were sufficient to achieve good individual predictions. For the residual variability (RV), the constant coefficient of variation (CCV) and combined additive and proportional error models were tested.
The final PK model of rezafungin is a three-compartment model with first-order elimination, characterized by the parameters CL, V1, V23, Q2, and Q3. The variability model included IIV in V1, V23, and CL, their covariances, and a proportional RV model (Table 2). All fixed and random effect parameters, including those of the covariance terms, were estimated with reasonable precision (<39%RSE). The magnitudes of the IIV parameters were moderate for all parameters: 30.5 coefficient of variation expressed as a percent (%CV) for CL, 37.6%CV for V1, and 29.3%CV for V23. Eta shrinkage was low for all parameters (<11%), and the residual error was also low (9.74%CV).
Data were obtained from five Phase 1 studies (CD101.IV.1.01, CD101.IV.1.02, CD101.IV.1.06, CD101.IV.1.07, and CD101.IV.1.15), a Phase 2 study (CD101.IV.2.03; STRIVE), and a Phase 3 study (CD101.IV.3.05; ReSTORE) (Table S1). All study participants met the inclusion and exclusion criteria for the study in which they were enrolled. All clinical studies were conducted in compliance with International Council for Harmonisation guidelines on Good Clinical Practice.
Dosing regimens for rezafungin are described in Table S1. Data from both single- and multiple-dose studies, with doses ranging from 50 to 1,400 mg, were included in this analysis. All doses of rezafungin were administered via IV infusion.
Dense PK samples were collected in the Phase 1 studies, and a mixture of dense and sparse PK samples were collected in the Phase 2 and Phase 3 studies. […]

[2] = mouse plasma; cited from earlier work
Method: Using each simulated patient’s Bayesian PK parameters and dose amounts, simulations were performed to obtain plasma concentration profiles. […] For the purposes of target attainment analyses, AUC0–168h after the first dose was used (day 1). Protein binding of 99.2% in mouse plasma and of 97.4% in human (presumed healthy) plasma has been reported ([34]).

[3] = final population PK model, population mean
[4] = final population PK model, population mean, covariate effect

CCCCCOc1ccc(-c2ccc(-c3ccc(C(=O)N[C@H]4C[C@@H](O)[C@@H](OCC[N+](C)(C)C)NC(=O)[C@@H]5[C@@H](O)[C@@H](C)CN5C(=O)[C@H]([C@@H](C)O)NC(=O)[C@H]([C@H](O)[C@@H](O)c5ccc(O)cc5)NC(=O)[C@@H]5C[C@@H](O)CN5C(=O)[C@H]([C@@H](C)O)NC4=O)cc3)cc2)cc1 [rezafungin] ({pTerphenylCO(4''-OnC5H11)}-[Orn(4R-OH,5R-OCH2CH2NMe3+)]T[Hyp][hTyr(3S-OH,4S-OH)]T[Pro(3S-OH,4S-Me)]; lactam 1-C)
1-Log drop, fAUC0–168h/MIC median (Candida tropicalis; 1-log10 drop in CFU): 148.9 | Stasis, fAUC0–168h/MIC median (Candida tropicalis; net fungal stasis): 86.5 | 1-Log drop, fAUC0–168h/MIC median (Candida dubliniensis; 1-log10 drop in CFU): 228.3 | Stasis, fAUC0–168h/MIC median (Candida dubliniensis; net fungal stasis): 35.1 | 1-Log drop, fAUC0–168h/MIC median (Candida auris; 1-log10 drop in CFU): 38.4 | Stasis, fAUC0–168h/MIC median (Candida auris; net fungal stasis): 12.1 | 1-Log drop, fAUC0–168h/MIC median (Candida albicans; 1-log10 drop in CFU): 37.2 | Stasis, fAUC0–168h/MIC median (Candida albicans; net fungal stasis): 20.5 | 1-Log drop, fAUC0–168h/MIC median (Candida glabrata; 1-log10 drop in CFU): 2.94 | Stasis, fAUC0–168h/MIC median (Candida glabrata; net fungal stasis): 0.5 | CL ([1]; BSA 1.3 m^2, based on the final model estimates): 0.235 L/h | CL ([1]; BSA 2.6 m^2, based on the final model estimates): 0.433 L/h | lower CL in healthy subjects than infected subjects or those with hepatic impairment ([1]; final model estimates): 27.6% | Q2, Distribution clearance 1 [1, 3]: 0.236 L/h | Q3, Distribution clearance 2 [1, 3]: 12.4 L/h | V23, Peripheral volume 1 and 2 ([1]; final population PK model, population mean, BSA 1.9 m^2, ALB 3.2 g/dL): 19.1 L | CL, Central clearance ([1]; final population PK model, population mean, IV infusion, 277 subjects, typical value for disease state, BSA 1.9 m^2): 0.328 L/h | Exponent of (BSA/1.9) for V1 [1, 4]: 1.56 | Exponent of (BSA/1.9) for V23 [1, 4]: 1.17 | V1, Central volume ([1]; final population PK model, population mean, typical value for disease state, BSA 1.9 m^2): 17.7 L | Protein binding [2]: 99.2%
